Values of other authors in patent US8229872B2, “Modeling and control for highly variable and nonlinear systems” (priority 2007, dated 2012).

Tested on: receptors of the neuromuscular junction
Conditions: isolated cat anterior tibialis and sartorius muscles; ref [18]

For `COc1cc2c3cc1Oc1cc(ccc1O)C[C@@H]1c4c(cc(OC)c(O)c4Oc4ccc(cc4)C[C@@H]3N(C)CC2)CC[N+]1(C)C` [tubocurarine], the “receptors that had to be blocked by the antagonist before block was noticeable” value is listed as 76±5% and the “receptors that had to be blocked for near complete blockade” value is listed as 92±16%.
